Measured values reported in US11318137B2, “Quinazoline compounds as modulators of Ras signaling” (VANDERBILT UNIVERSITY, priority 2017, dated 2022).

Legend:
[1] = biological target: T1, SOS-mediated nucleotide exchange on Ras (Homo sapiens, UniProt Q07889); test: SOS-mediated nucleotide exchange on Ras (BODIPY-GDP fluorescence); type: biochemical; details: Ras loaded with BODIPY-GDP, GTP and SOS added; EC50 from derived exchange rates
T1 sequence (Q07889 1-1333): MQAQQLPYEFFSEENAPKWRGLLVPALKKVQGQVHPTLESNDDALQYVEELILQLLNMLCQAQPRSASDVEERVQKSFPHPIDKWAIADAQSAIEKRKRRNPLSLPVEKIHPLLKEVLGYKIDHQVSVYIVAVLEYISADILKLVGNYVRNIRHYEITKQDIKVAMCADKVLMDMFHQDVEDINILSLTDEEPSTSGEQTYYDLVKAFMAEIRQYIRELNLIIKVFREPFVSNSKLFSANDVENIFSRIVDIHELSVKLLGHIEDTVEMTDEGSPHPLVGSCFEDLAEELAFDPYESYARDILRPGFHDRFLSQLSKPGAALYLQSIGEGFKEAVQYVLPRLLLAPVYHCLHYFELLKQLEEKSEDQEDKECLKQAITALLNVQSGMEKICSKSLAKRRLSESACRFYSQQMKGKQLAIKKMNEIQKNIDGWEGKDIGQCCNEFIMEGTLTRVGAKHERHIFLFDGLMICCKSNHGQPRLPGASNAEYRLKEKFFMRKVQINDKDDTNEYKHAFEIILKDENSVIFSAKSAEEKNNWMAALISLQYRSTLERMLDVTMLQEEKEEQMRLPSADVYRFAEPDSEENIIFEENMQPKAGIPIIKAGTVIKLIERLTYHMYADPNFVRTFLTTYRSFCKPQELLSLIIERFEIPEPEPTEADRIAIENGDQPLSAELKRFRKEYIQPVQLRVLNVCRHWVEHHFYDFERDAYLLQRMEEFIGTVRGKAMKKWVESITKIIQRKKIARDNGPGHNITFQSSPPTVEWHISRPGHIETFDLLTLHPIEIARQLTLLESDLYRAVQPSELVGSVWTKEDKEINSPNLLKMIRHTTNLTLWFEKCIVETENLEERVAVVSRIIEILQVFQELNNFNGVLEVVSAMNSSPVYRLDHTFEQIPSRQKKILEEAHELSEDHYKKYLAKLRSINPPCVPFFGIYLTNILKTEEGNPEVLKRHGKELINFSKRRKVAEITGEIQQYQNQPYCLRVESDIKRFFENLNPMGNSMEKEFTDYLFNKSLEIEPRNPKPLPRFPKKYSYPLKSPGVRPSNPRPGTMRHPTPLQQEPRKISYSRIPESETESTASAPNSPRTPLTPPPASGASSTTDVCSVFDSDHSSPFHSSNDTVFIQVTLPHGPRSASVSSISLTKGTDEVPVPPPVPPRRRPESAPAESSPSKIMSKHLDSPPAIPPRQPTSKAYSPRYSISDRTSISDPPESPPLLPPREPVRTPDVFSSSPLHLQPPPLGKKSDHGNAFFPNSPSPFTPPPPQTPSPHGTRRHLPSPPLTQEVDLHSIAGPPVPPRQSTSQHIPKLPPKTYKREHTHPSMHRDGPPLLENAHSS
Experimental: A. SOS-Mediated Nucleotide Exchange on Ras
Compounds of the present invention were tested for their ability to modify the rate at which Ras exchanges a labeled nucleotide guanosine diphosphate (GDP) analog for guanosine triphosphate (GTP). Briefly, test compounds, then GTP and the Ras GEF SOS (Son of Sevenless) are added to a buffered solution containing Ras protein loaded with BODIPY-GDP. Changes in fluorescence indicating exchange of the labeled GDP for GTP are monitored over time. Raw fluorescence data was fit to a single exponential decay function and derived rates were plotted as mean values. EC50 values were calculated by plotting mean derived rates as a function of compound concentration and fit using a four-parameter dose-response curve. Full assay details are disclosed in: Burns, M. C.; Sun, Q.; Daniels, R. N.; Camper, D. V.; Kennedy, J. P.; Phan, J.; Olejniczak, E. O.; Lee, T.; Waterson, A. G.; Rossanese, O. W.; Fesik, S. W. “Approach for targeting Ras with small molecules that activate SOS-mediated nucleotide exchange” Proc. Natl. Acad. Sci. 2014; 11(9): 3401-3406. PMCID: PMC3948241.

Son of Sevenless (SOS) = biological target: T2, Son of Sevenless (SOS) (Homo sapiens, UniProt Q07889); test: Binding to SOS, fluorescence polarization anisotropy (FPA) displacement of FITC-conjugated probe; details: binding affinity calculated from IC50 of FITC-probe displacement, read-out: Binding affinities (binding affinity to SOS)
T2 sequence (Q07889 564-1049 limits assumed): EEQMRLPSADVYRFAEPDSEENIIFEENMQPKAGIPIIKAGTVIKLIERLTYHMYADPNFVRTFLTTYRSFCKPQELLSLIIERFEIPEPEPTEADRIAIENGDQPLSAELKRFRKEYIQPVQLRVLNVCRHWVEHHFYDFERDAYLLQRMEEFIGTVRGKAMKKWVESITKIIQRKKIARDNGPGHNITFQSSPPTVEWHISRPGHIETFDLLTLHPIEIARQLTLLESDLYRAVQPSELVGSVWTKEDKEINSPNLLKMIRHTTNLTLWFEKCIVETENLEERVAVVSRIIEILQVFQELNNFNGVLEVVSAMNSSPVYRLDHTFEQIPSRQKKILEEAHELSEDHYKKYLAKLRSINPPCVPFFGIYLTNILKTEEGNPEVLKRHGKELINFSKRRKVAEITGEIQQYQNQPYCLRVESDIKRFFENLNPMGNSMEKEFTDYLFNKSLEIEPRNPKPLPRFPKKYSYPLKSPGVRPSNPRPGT
Experimental: Compounds of the present invention were tested for their ability to the Ras guanine exchange factor (GEF) Son of Sevenless (SOS). Binding to SOS was measured using a Fluorescence polarization anisotropy (FPA) assay that assesses the ability of a test compound to displace a fluorescent FITC-conjugated compound. Briefly, the labeled probe compound is incubated with SOS in buffer. Changes in anisotropy indicative of displacement of the labeled probe for a test compound are assessed over a dose range of test compound. Data was analyzed by plotting fluorescence anisotropy values as a function of compound concentration. IC50 values were determined using a four-parameter dose-response (variable slope) and binding affinities were calculated from this IC50 value. This assay is performed in a method analogous to the assay disclosed in: Burns, M. C.; Sun, Q.; Daniels, R. N.; Camper, D. V.; Kennedy, J. P.; Phan, J.; Olejniczak, E. O.; Lee, T.; Waterson, A. G.; Rossanese, O. W.; Fesik, S. W. “Approach for targeting Ras with small molecules that activate SOS-mediated nucleotide exchange” Proc. Natl. Acad. Sci. 2014; 11(9): 3401-3406. PMCID: PMC3948241.

Row | EC50 [1] | Ki (Son of Sevenless (SOS)) | Structure (SMILES)
1 | 1 to 5 µM | 1 to 5 µM | C[C@@H](Nc1nc(NCc2cccc(Cl)c2F)nc2c(CCN)cccc12)C1CC1 [Example 119, (R)-8-(2-aminoethyl)-N^2-(3-chloro-2-fluorobenzyl)-N^4-(1-cyclopropylethyl)quinazoline-2,4-diamine]
2 | 1 to 5 µM | 1 to 5 µM | C[C@@H](Nc1nc(NCC2CCCC2)nc2c(C3=CCNCC3)cccc12)C1CC1 [Example 105, (R)—N^2-(cyclopentylmethyl)-N^4-(1-cyclopropylethyl)-8-(1,2,3,6-tetrahydropyridin-4-yl)quinazoline-2,4-diamine]
3 | 1 to 5 µM | > 5 µM | C[C@@H](Nc1nc(Nc2ccc(F)c(Cl)c2)nc2c(NC3CNC3)cccc12)C1CC1 [Example 112, (R)—N^8-(azetidin-3-yl)-N^2-(3-chloro-4-fluorophenyl)-N-(1-cyclopropylethyl)quinazoline-2,4,8-triamine]
4 | 1 to 5 µM | > 5 µM | C[C@@H](Nc1nc(Nc2cc(F)cc(C#N)c2)nc2ccccc12)C1CC1 [Example 23, (R)-3-((4-((1-cyclopropylethyl)amino)quinazolin-2-yl)amino)-5-fluorobenzonitrile]
5 | 1 to 5 µM | 1 to 5 µM | C=CC[C@@H](Nc1nc(Nc2ccc(F)c(Cl)c2)nc2c(C3=CCNCC3)cccc12)C1CC1 [Example 115, (R)—N^2-(3-chloro-4-fluorophenyl)-N^4-(1-cyclopropylbut-3-en-1-yl)-8-(1,2,3,6-tetrahydropyridin-4-yl)quinazoline-2,4-diamine]
6 | 1 to 5 µM | 1 to 5 µM | C[C@@H](Nc1nc(NCC2CCCCC2)nc2c(C3=CCNCC3)cccc12)c1cccs1 [Example 90, (R)—N^2-(cyclohexylmethyl)-8-(1,2,3,6-tetrahydropyridin-4-yl)-N^4-(1-(thiophen-2-yl)ethyl)quinazoline-2,4-diamine]
7 | 5 to 30 µM | > 5 µM | Cc1cc(F)cc(Nc2nc(N[C@H](C)c3cccs3)c3cccc(CCN)c3n2)c1 [Example 92, (R)-8-(2-aminoethyl)-N^2-(3-fluoro-5-methylphenyl)-N^4-(1-(thiophen-2-yl)ethyl)quinazoline-2,4-diamine]
8 | 5 to 30 µM | > 5 µM | CC[C@@H](Nc1nc(Nc2ccc(F)c(Cl)c2)nc2ccccc12)C1CC1 [Example 34, (R)—N^2-(3-chloro-4-fluorophenyl)-N^4-(1-cyclopropylpropyl)quinazoline-2,4-diamine]
9 | 1 to 5 µM | > 5 µM | Fc1ccc(Nc2nc(NC(C3CC3)C3CC3)c3ccccc3n2)cc1Cl [Example 21, N^2-(3-chloro-4-fluorophenyl)-N^4-(dicyclopropylmethyl)quinazoline-2,4-diamine]
10 | 1 to 5 µM | 1 to 5 µM | C[C@@H](Nc1nc(Nc2ccc(F)c(Cl)c2)nc2c(CC3CNC3)cccc12)C1CC1 [Example 113, (R)-8-(azetidin-3-ylmethyl)-N^2-(3-chloro-4-fluorophenyl)-N^4-(1-cyclopropylethyl)quinazoline-2,4-diamine]
11 | 1 to 5 µM | > 5 µM | CC[C@@H](Nc1nc(Nc2ccc(F)c(Cl)c2)nc2ccccc12)C1CCC1 [Example 42, (R)—N^2-(3-chloro-4-fluorophenyl)-N^4-(1-cyclobutylpropyl)quinazoline-2,4-diamine]
12 | > 30 µM | > 5 µM | CCOCCc1cccc2c(N[C@H](C)C3CC3)nc(Nc3ccc(F)c(Cl)c3)nc12 [Example 123, (R)—N^2-(3-chloro-4-fluorophenyl)-N^4-(1-cyclopropylethyl)-8-(2-ethoxyethyl)quinazoline-2,4-diamine]
13 | 1 to 5 µM | > 5 µM | Fc1ccc(CNc2nc(NCc3ccco3)c3ccccc3n2)cc1 [Example 14, N^2-(4-fluorobenzyl)-N^4-(furan-2-ylmethyl)quinazoline-2,4-diamine]
14 | 5 to 30 µM | > 5 µM | C[C@@H](Nc1nc(NCc2ccc(F)cc2F)nc2ccccc12)C1CC1 [Example 19, (R)—N^4-(1-cyclopropylethyl)-N^2-(2,4-difluorobenzyl)quinazoline-2,4-diamine]
15 | 5 to 30 µM | 1 to 5 µM | C[C@@H](Nc1nc(Nc2ccc(F)c(Cl)c2)nc2c(C3=CCN(C)CC3)cccc12)C1CC1 [Example 120, (R)—N^2-(3-chloro-4-fluorophenyl)-N^4-(1-cyclopropylethyl)-8-(1-methyl-1,2,3,6-tetrahydropyridin-4-yl)quinazoline-2,4-diamine]
16 | 1 to 5 µM | > 5 µM | C[C@@H](Nc1nc(NCC2CCCCC2)nc2ccccc12)C1CC1 [Example 4, (R)—N^2-(cyclohexylmethyl)-N^4-(1-cyclopropylethyl)quinazoline-2,4-diamine]
17 | 5 to 30 µM | 1 to 5 µM | C[C@@H](Nc1nc(NCc2cccc(Cl)c2F)nc2c(C3=CCNCC3)cccc12)c1cccs1 [Example 133, (R)—N^2-(3-chloro-2-fluorobenzyl)-8-(1,2,3,6-tetrahydropyridin-4-yl)-N^4-(1-(thiophen-2-yl)ethyl)quinazoline-2,4-diamine]
18 | 5 to 30 µM | > 5 µM | C[C@@H](Nc1nc(Nc2ccc(F)c(Cl)c2)nc2c(NCCCN(C)C)cccc12)C1CC1 [Example 53, (R)—N^2-(3-chloro-4-fluorophenyl)-N^4-(1-cyclopropylethyl)-N^8-(3-(dimethylamino)propyl)quinazoline-2,4,8-triamine]
19 | 5 to 30 µM | – | CC(C)[C@@H](C)Nc1nc(Nc2cc(F)cc(F)c2)nc2ccccc12 [Example 20, (R)—N^2-(3,5-difluorophenyl)-N^4-(3-methylbutan-2-yl)quinazoline-2,4-diamine]
